Converted amounts (≈) assume the structure as drawn.
System: Toxoplasma gondii RH strain
Test: [3H]-uracil incorporation assay in VERO host cells

SMILES: Nc1ccc(S(=O)(=O)Nc2ncccn2)cc1 [Sulfadiazine, reference compound]
- Proliferation of Tg ± SD (1 µg/ml): 104.59 ±4.12%
- Proliferation of Tg ± SD (5 µg/ml): 96.71 ±3.85%
- Proliferation of Tg ± SD (25 µg/ml): 78.58 ±4.67%
- Proliferation of Tg ± SD (50 µg/ml): 67.99 ±7.73%
- Proliferation of Tg ± SD (125 µg/ml): 65.58 ±4.80%
- Proliferation of Tg ± SD (250 µg/ml): 61.79 ±3.13%
- Proliferation of Tg ± SD (500 µg/ml): 56.68 ±3.64%
- Proliferation of Tg ± SD (1250 µg/ml): 45.17 ±1.03%
- Proliferation of Tg ± SD (2500 µg/ml): 45.36 ±0.58%
- IC50 (Toxoplasma gondii, Vero, read-out: IC50 anti-Tg): 936 µg/mL (≈ 3.74 mM)

— publication PMC6133161, “Thiazoles with cyclopropyl fragment as antifungal, anticonvulsant, and anti-Toxoplasma gondii agents: synthesis, toxicity evaluation, and molecular docking study” (Medicinal Chemistry Research, 2018)
